Laboratory results: publication PMC7731667 (Journal of medicinal chemistry, 2020)

Key:
[1] = In vivo pharmacokinetics in mice; design: species or system mouse; details: for time until brain level fell below target therapeutic level: mice, single 10 mg/kg IV dose, target 30 ng/g for 11 and 13B, 120 ng/g for 12; for clearance: male, CD-1, mouse, plasma, iv, 10 mg/kg
[2] = Mouse liver microsome stability; assay type: in vitro ADME; details: mouse liver microsomes
Human plasma stability = assay type: in vitro ADME; details: 120 min
Mouse plasma stability = assay type: in vitro ADME; details: 120 min
[3] = Human liver microsome stability; assay type: in vitro ADME; details: human liver microsomes
[4] = pH 7.4

Row | Compound | time until brain level fell below target therapeutic level [1] | Hplasma stability (Human plasma stability) [% @ 120 min] | Mplasma stability (Mouse plasma stability) [% @ 120 min] | also measured
1 | O=C(CCCCCc1ccccc1)N[C@H]1CC[C@H](O)CC1 [Compound 13B, N-(trans-4-hydroxycyclohexyl)-6-phenylhexanamide] | greater than 2 hour |  |  | 
2 | CC1CCCCC1NC(=O)NCCSc1nnc(C2CC2)n1-c1ccccc1 (centres unmarked) [Compound 1, 1-(2-((5-cyclopropyl-4-phenyl-4H-1,2,4-triazol-3-yl)thio)ethyl)-3-(2-methylcyclohexyl)urea, reference compound] |  | 95 | 94 | half-life at 1 μM [2]: 2 min
3 | O=C(NCCCCc1ccccc1)NC1CCC(O)CC1 (centres unmarked) [Compound 12, 1-(4-hydroxycyclohexyl)-3-(4-phenylbutyl)urea] | 1 h |  |  | clearance [1]: 29.5 mL/min/kg
4 | CC1CCCCC1NC(=O)NCCCc1nnc(C2CC2)n1-c1ccccc1 (centres unmarked) [Compound 2, 1-(3-(5-cyclopropyl-4-phenyl-4H-1,2,4-triazol-3-yl)propyl)-3-(2-methylcyclohexyl)urea] |  | 95 | 100 | 
5 | N-(4-fluoro-4-methylcyclohexyl)-6-phenylhexanamide [Compound 18] |  |  |  | t1/2 MLM [2]: 2.8 min; t1/2 HLM [3]: 10.2 min
6 | 1-(3-(5-cyclopropyl-4-phenyl-4H-1,2,4-triazol-3-yl)propyl)-3-(2-methylcyclohexyl)urea [Compound 3] |  | 98 | 84 | t1/2 MLM [2]: 3 min; t1/2 HLM [3]: 8 min; Solubility [4]: 24
7 | CC1CC(O)CCC1NC(=O)NCCCCc1ccccc1 (centres unmarked) [Compound 11, 1-(4-hydroxy-2-methylcyclohexyl)-3-(4-phenylbutyl)urea] | 1 h |  |  | clearance [1]: 63.9 mL/min/kg
